Entries after “also recorded” stand apart in the source; their conditions may differ. Peptide text beside a SMILES is read from it. * marks the point of attachment. Cbz = O=C(OCc1ccccc1)*; CH2F = FC*
Key:
Type in all cases: in vivo
[1] = test system: CC10-rtTA-IFN-γ transgene (+) mice; test: IFN-γ-induced lung cell apoptosis (TUNEL) in transgenic mice; conditions: for IFN-γ-induced apoptosis (TUNEL): transgene (+) mice on dox, 14150 10 mg/kg/day by gavage, CA074 10 mg/Kg/day, leupeptin 15 mg/kg I.P., vs vehicle
Source text: (§1) CC10-rtTA-IFN-γ mice that had been generated in our laboratory and bred for at least 10 generations onto a Balb/c background were used in these studies. These are dual transgene positive animals in which the reverse tetracycline transactivator (rtTA) drives the expression of the murine IFN-γ gene in a lung-specific and externally regulatable fashion. The transgene in these mice is activated by adding doxycycline (dox) to the animal's drinking water. These mice were maintained as dual transgene (+) heterozygotes (refered to as transgene (+) hereafter).
(§2) CC 10-rtTA-IFN-γ mice and littermate controls were maintained on normal water until they were 4-6 weeks old.
End labeling of exposed 3′-OH ends of DNA fragments in paraffin embedded tissue was undertaken with the TUNEL in situ cell death detection kit AP (Roche Diagnostics, Calif., USA) using the instructions provided by the manufacturer. After staining, 20 fields of alveoli were randomly chosen and 2000 nuclei were counted. The labeled cells were expressed as percentage of total nuclei.

[2] = test system: CC10-rtTA-IFN-γ transgene (+) mice; test: IFN-γ-induced emphysema (lung volume, chord length, histology, compliance) in transgenic mice; conditions: transgene (+) mice on dox, Z-VAD-fmk 3 μg/kg/day I.P., 14150 10 mg/kg/day by gavage, CA074 10 mg/Kg/day, leupeptin 15 mg/kg I.P., vs vehicle
Source text: as §1, §2
(§3) Animals were sacrificed via cervical dislocation, a median sternotomy was performed, and right heart perfusion was accomplished with calcium- and magnesium-free PBS to clear the pulmonary intravascular space. The lungs were then fixed to pressure (25 cm) with neutral buffered 10% formalin, fixed overnight in 10% formalin, embedded in paraffin, sectioned at 5 μm and stained. Hematoxylin and eosin (H&E) stains were performed in the Research Histology Laboratory of the Department of Pathology at Yale University School of Medicine.
In brief, the trachea was cannulated, the lungs were degassed and the lungs and heart were removed en bloc and inflated with PBS at 25 cm of pressure. The size of the lung was evaluated via volume displacement. Compliance was calculated as the change in volume divided by the change in pressure.

[3] = test system: CC10-rtTA-IFN-γ transgene (+) mice; test: Lung mRNA encoding cathepsins and MMPs (RT-PCR, real-time RT-PCR); conditions: transgene (+) mice on dox 2 weeks
[4] = test system: CC10-rtTA-IFN-γ transgene (+) mice; test: IFN-γ-induced BAL and tissue inflammation; conditions: transgene (+) mice on dox 2 weeks
Description: Mice were euthanized, the trachea was isolated by blunt dissection, and tubing was secured in the airway. Two volumes of 1 mL of PBS with 0.1% BSA were then instilled and gently aspirated and pooled. Each BAL fluid sample was centrifuged, and the supernatants were stored in −70° C. until used The levels of IFN-γ were determined using a commercial ELISA (R&D Systems Inc., Minneapolis, Minn., USA) as per the manufacturer's instructions.
as §3

Row | Structure (SMILES) | IFN-γ-induced apoptosis (TUNEL) [1] | IFN-γ-induced emphysema (lung volume, chord length, alveolar histology, compliance) [2] | decrease of the levels of IFN-γ-induced apoptosis ([1]; transgene (+) mice on dox 2 weeks, Z-VAD-fmk 3 μg/kg/day I.P. vs vehicle) [%] | IFN-γ-induced increase in mRNA encoding cathepsin B, cathepsin S and MMPs-2 and -14 [3] | levels of mRNA encoding cathepsin H and MMPs-9 and -12 [3] | IFN-γ-induced BAL total cell, neutrophil, lymphocyte and macrophage alterations and tissue inflammation [4] | IFN-γ-induced emphysema (lung volume, chord length, alveolar histology, compliance) ([2]; listed as Z-VAD-fink) | MMP-9 mRNA induction [3]
1 | CCCNC(=O)[C@H]1O[C@@H]1C(=O)N[C@H](C(=O)N1CCC[C@H]1C(=O)O)[C@@H](C)CC (relative stereo) [CA074, N-(L-3-trans-propylcarbamoyl-oxirane-2-carbonyl)-L-isoleucyl-L-proline] | significant decreases | significant decreases | – | – | – | – | – | –
2 | COC(=O)C[C@H](NC(=O)[C@H](C)NC(=O)[C@@H](NC(=O)OCc1ccccc1)C(C)C)C(=O)CF [Z-VAD-fmk] (Cbz-Val-Ala-Asp(OMe)-CH2F) | – | decreased the emphysema generating effects of IFN-γ | ≥ 85 | markedly ameliorated | not similarly altered | markedly ameliorated | only partially abrogated | –
3 | CC[C@H](NC(=O)[C@H](CS(=O)(=O)CC(C)C)NC(=O)N1CCOCC1)C(=O)c1nc2ccccc2o1 [compound 14150] | significant decreases; also recorded: significantly inhibited | significant decreases; also recorded: significantly inhibited | – | – | – | – | – | –
4 | CC(=O)N[C@@H](CC(C)C)C(=O)N[C@@H](CC(C)C)C(=O)N[C@H](C=O)CCCNC(=N)N [leupeptin] | – | – | – | decreased | – | – | – | induced in am leupeptin-dependent fashion
